21 compounds from ChEMBL document CHEMBL3608268, “Re-exploring the N-phenylpicolinamide derivatives to develop mGlu4 ligands with improved affinity and in vitro microsomal stability” (Bioorg Med Chem Lett, 2015) can be followed below.

For series [1], the target named is T1, Metabotropic glutamate receptor 4 (Homo sapiens, UniProt Q14833). As to the kind of experiment: Displacement of [3H]N-(4-chloro-3-methoxyphenyl)picolinamide from human mGlu4 receptor expressed in CHO cell membranes incubated for 30 mins by liquid scintillation counting method.
T1 sequence (Q14833 whole entry): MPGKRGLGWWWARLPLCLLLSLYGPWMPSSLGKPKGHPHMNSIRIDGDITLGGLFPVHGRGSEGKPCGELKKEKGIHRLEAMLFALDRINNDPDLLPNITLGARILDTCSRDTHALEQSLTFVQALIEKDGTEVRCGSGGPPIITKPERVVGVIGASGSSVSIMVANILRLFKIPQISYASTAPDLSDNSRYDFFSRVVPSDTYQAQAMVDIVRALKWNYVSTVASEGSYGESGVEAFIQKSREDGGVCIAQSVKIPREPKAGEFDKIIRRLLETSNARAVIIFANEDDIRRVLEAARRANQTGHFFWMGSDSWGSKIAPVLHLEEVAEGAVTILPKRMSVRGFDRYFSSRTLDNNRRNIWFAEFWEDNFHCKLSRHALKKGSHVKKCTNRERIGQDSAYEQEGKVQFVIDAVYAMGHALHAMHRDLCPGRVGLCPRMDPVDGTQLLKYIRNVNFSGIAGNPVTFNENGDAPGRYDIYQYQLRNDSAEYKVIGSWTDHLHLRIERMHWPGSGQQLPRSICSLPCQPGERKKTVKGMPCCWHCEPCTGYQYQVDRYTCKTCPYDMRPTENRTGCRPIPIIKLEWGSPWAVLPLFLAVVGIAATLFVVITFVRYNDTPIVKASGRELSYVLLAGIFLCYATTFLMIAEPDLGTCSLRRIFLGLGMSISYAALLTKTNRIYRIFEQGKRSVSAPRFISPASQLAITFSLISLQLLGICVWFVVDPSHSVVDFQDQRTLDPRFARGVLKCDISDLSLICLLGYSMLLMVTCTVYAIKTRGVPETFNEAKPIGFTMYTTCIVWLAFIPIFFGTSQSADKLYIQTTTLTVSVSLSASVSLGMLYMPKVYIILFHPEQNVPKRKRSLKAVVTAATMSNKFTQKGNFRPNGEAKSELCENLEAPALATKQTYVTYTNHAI
Series [2] deals with T1, Metabotropic glutamate receptor 4. Briefly: Positive allosteric modulator activity at human mGlu4 receptor.
For series [3] the following is noted: pampa.
Description: Effective permeability by PAMPA method
Series [4] addresses Metabotropic glutamate receptor 4 (Rattus norvegicus, UniProt P31423). Briefly: Positive allosteric modulator activity at rat mGlu4 receptor.
The next series has as its system Liver microsome. As to the kind of experiment: Half life in Wistar rat liver microsomes in presence of NADPH generation system by HPLC method. Format: ADME. (In general: Liver microsomes are vesicles of endoplasmic reticulum, rich in cytochrome P450 enzymes.)
In series [5] the target is Metabotropic glutamate receptor 1 (Homo sapiens, UniProt Q13255). Briefly: Activity at mGlu1 receptor (unknown origin) expressed in HEK293 cells by Ca2+ mobilization assay. Format: functional, cell-based. A general note: Calcium flux is commonly read through the fluorescence of an indicator in the cells.
Chain of Metabotropic glutamate receptor 1 (Q13255 whole entry): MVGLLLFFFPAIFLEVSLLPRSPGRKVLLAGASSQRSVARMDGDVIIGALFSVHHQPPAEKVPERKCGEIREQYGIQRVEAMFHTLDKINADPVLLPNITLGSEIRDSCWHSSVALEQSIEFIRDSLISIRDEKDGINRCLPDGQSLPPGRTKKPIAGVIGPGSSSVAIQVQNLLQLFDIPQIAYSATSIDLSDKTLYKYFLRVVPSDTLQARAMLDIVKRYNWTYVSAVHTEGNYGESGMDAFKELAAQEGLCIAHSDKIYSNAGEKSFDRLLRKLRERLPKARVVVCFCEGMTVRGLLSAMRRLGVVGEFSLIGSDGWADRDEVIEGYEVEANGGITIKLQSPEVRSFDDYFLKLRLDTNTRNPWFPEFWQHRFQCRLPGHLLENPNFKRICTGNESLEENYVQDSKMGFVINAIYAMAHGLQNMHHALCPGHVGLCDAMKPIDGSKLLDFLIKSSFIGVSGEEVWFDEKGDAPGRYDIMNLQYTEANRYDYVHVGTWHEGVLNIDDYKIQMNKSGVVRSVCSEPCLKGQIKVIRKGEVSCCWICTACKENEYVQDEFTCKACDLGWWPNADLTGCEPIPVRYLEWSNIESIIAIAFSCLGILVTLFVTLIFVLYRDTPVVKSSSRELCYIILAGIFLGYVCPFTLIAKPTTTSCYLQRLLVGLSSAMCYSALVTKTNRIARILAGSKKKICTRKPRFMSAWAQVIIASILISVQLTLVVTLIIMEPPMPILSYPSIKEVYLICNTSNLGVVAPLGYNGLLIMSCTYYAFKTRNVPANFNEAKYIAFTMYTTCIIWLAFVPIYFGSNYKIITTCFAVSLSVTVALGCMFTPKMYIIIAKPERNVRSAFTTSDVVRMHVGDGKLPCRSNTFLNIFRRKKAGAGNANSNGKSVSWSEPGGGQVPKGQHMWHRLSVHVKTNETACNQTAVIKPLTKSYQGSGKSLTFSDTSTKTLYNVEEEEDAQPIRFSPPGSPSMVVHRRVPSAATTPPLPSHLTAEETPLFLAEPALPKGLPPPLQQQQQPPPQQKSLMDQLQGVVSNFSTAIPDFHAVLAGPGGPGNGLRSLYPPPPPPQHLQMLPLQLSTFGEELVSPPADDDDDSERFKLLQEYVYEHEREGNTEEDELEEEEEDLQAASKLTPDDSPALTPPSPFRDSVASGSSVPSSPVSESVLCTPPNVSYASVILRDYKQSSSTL
Series [6] addresses Metabotropic glutamate receptor 5 (Homo sapiens, UniProt P41594). Briefly: Activity at mGlu5 receptor (unknown origin) expressed in HEK293 cells by Ca2+ mobilization assay. Format: functional, cell-based.
In series [7] the target is Metabotropic glutamate receptor 6 (Homo sapiens, UniProt O15303). As to the kind of experiment: Activity at mGlu6 receptor (unknown origin) expressed in HEK293 cells pre-treated for 15 mins before addition of EC80 concentration of reference agonist for another 15 mins by cAMP accumulation assay. The class given is functional, cell-based. Background: cAMP levels reflect the balance of adenylyl cyclase and phosphodiesterase activity.
Chain of Metabotropic glutamate receptor 6 (O15303 whole entry): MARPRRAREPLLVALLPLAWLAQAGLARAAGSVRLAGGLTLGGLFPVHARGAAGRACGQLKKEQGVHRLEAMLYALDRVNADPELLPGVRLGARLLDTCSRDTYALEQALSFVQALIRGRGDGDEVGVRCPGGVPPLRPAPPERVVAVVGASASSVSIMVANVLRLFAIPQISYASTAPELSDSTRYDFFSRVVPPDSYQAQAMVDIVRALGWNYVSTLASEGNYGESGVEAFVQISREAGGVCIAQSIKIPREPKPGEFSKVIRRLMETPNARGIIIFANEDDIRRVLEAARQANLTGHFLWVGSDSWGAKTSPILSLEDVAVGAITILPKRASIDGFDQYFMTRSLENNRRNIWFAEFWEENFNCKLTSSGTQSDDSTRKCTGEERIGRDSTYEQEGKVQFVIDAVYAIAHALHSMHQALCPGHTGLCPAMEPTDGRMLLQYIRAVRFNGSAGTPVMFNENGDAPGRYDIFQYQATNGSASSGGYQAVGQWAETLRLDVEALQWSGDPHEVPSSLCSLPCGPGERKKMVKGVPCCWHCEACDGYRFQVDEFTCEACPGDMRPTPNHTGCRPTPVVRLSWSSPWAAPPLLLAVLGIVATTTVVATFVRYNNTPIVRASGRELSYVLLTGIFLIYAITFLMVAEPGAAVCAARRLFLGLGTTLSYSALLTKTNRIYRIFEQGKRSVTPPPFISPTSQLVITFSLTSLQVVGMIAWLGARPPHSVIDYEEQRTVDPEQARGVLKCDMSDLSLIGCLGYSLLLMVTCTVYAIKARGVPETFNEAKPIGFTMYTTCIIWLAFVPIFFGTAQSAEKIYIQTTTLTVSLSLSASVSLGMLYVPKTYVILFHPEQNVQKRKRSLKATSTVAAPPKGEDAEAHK

For series [8], the target named is Metabotropic glutamate receptor 2 (Homo sapiens, UniProt Q14416). Briefly: Activity at mGlu2 receptor (unknown origin) expressed in HEK293 cells pre-treated for 15 mins before addition of EC80 concentration of reference agonist for another 15 mins by cAMP accumulation assay. The class given is functional, cell-based.
Chain of Metabotropic glutamate receptor 2 (Q14416 whole entry): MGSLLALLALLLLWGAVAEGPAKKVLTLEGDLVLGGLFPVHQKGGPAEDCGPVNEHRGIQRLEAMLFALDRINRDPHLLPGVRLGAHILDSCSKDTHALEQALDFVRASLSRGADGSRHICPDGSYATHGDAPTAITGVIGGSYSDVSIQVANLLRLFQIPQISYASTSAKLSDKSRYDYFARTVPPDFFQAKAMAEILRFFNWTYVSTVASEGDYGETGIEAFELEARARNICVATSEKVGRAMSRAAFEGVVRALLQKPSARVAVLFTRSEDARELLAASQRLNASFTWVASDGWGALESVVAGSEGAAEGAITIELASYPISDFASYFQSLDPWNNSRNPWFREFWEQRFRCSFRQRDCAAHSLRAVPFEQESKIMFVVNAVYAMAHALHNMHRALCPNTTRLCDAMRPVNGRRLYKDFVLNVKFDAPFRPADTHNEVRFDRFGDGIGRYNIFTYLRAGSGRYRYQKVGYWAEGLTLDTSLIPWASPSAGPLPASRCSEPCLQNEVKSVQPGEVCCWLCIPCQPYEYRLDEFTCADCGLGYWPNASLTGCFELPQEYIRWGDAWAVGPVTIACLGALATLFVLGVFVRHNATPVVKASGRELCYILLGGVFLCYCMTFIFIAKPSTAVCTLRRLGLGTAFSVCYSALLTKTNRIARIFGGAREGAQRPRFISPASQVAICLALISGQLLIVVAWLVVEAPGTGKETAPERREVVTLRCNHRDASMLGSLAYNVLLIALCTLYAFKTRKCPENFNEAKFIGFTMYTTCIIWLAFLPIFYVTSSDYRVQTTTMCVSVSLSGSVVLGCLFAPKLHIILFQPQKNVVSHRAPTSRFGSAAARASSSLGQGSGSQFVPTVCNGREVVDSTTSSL
Series [9] concerns the target Metabotropic glutamate receptor 8 (Homo sapiens, UniProt O00222). As to the kind of experiment: Activity at mGlu8 receptor (unknown origin) expressed in HEK293 cells pre-treated for 15 mins before addition of EC80 concentration of reference agonist for another 15 mins by cAMP accumulation assay. The class given is functional, cell-based.

Chain of Metabotropic glutamate receptor 4 (Rattus norvegicus, UniProt P31423) (P31423 whole entry): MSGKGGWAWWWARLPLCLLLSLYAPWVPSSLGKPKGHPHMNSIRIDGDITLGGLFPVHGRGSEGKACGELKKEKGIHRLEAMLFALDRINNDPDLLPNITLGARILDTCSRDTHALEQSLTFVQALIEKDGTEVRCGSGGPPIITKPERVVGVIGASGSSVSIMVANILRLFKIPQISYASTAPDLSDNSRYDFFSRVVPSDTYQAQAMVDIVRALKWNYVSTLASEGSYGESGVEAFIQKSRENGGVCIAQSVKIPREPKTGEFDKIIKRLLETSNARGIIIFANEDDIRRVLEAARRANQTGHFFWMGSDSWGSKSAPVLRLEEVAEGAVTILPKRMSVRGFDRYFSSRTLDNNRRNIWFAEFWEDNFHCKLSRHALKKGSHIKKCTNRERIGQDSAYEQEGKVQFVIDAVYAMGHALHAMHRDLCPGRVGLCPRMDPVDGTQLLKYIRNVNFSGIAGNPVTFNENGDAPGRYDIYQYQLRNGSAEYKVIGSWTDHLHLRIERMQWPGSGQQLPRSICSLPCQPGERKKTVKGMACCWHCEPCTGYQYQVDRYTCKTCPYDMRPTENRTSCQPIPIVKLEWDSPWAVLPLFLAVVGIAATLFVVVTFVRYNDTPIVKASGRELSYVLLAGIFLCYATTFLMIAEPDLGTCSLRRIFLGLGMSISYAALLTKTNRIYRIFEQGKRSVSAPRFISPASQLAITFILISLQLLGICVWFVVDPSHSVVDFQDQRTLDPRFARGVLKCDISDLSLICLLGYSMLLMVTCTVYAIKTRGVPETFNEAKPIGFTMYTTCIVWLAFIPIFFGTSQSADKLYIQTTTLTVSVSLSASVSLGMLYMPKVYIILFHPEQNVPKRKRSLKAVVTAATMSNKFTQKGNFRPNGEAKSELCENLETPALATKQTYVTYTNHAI

One may read the IC50 as the midpoint of a concentration-inhibition curve. In the case of `CSc1cccc(NC(=O)c2ccccn2)c1`, the IC50 in series [1] turned out to be 4.9 nM.

In general, EC50 refers to the midpoint of the concentration-response curve. Regarding `c1cnc(Nc2nc3c(s2)CCCc2[nH]ncc2-3)nc1`, the EC50 in [2] worked out at 9 nM.

Compound `COc1cc(NC(=O)c2cccc(F)n2)ccc1Cl` gave a half-inhibitory concentration (IC50) in series [1] of 7.3 nM.

For the compound `Cc1ccnc(Nc2nc(-c3cn[nH]c3)c(C)s2)n1`, in [3], the Peff is 257 ×10⁻⁶ cm/s. The same compound gave a half-maximal effective concentration (EC50) in series [4] of 9 nM. For the same compound, the t1/2 in the series with Liver microsome worked out at 7 min.

Regarding `COc1cc(NC(=O)c2ccccn2)ccc1Br`, the IC50 in [1] was 322 nM.

Consider `COc1cc(NC(=O)c2ccccn2)ccc1I`, for which, in series [1], the IC50 is 146 nM.

`COc1cccc(NC(=O)c2ccccn2)c1`: the half-inhibitory concentration (IC50) in series [1] came to 13.7 nM.

For the compound `O=C(Nc1cccc(OC(F)F)c1)c1cccc(F)n1`, the half-inhibitory concentration (IC50) in series [1] was 6.7 nM.

Turning to `COc1cc(NC(=O)c2cccc(F)n2)ccc1F`, in series [1], the IC50 came out at 89.2 nM.

Take `N#Cc1cccc(NC(=O)c2ccccn2)c1`: in [1], the IC50 turned out to be 10.4 nM.

Compound `N#Cc1cc(NC(=O)c2ccccn2)ccc1F` registered an IC50 in [1] of 7.4 nM.

The compound `N#Cc1cc(NC(=O)c2ccccn2)ccc1Cl` displayed a 50% inhibitory concentration (IC50) in series [1] of 5.3 nM.

`N#Cc1cc(NC(=O)c2ccccn2)ccc1Br` registered a concentration for half-maximal inhibition (IC50) in series [1] of 47 nM.

`N#Cc1cc(NC(=O)c2ccccn2)ccc1I` returned a half-inhibitory concentration (IC50) in series [1] of 172 nM.

In [1], `O=C(Nc1ccc(Cl)c(OCF)c1)c1ccccn1` displayed a half-maximal inhibitory concentration (IC50) of 3.2 nM. This compound also displayed a Peff in series [3] of 272 ×10⁻⁶ cm/s. Also, the t1/2 in the series on Liver microsome is 5.8 min.

For `[2H]C([2H])(F)Oc1cc(NC(=O)c2ccccn2)ccc1Cl`, the IC50 in series [1] was 3.2 nM; in series [5], over 30000 nM; in series [6] it was over 30000 nM; in [7], over 30000 nM; in series [8] it was over 30000 nM; in series [9], over 30000 nM. The t1/2 in the series with Liver microsome was 7.4 min.

Consider `[2H]C([2H])(F)Oc1cccc(NC(=O)c2ccccn2)c1`, for which the IC50 in series [1] turned out to be 3.7 nM.

In series [3], `O=C(Nc1cccc(OC(F)F)c1)c1ccccn1` had a Peff of 214 ×10⁻⁶ cm/s. For the same compound, in the series on Liver microsome, the t1/2 was determined as 5.2 min.

On to `COc1cc(NC(=O)c2ccccn2)ccc1F`, for which the half-inhibitory concentration (IC50) in series [1] was 31.6 nM.

As to `O=C(Nc1cccc(Cl)c1)c1ccccn1`, the EC50 came out at 330 nM in series [4] and 1200 nM in [2].

The compound `COc1cc(NC(=O)c2ccccn2)ccc1Cl` yielded a Peff in series [3] of 256 ×10⁻⁶ cm/s. For the same compound, the t1/2 in the series with Liver microsome worked out at 4.9 min.
